Data set [1] deals with cerebral white matter. The settings on record: in vivo. Here is the method: (§1) Four primates (Macaca mulatta) underwent CED of various volumes (total volume of 90 to 150 μl) of iopamidol (777 Da) in the cerebral white matter combined with CT-imaging during and after infusion (up to 5 days post-infusion), as well as quantitative autoradiography (QAR). Clinical observation (≦20 weeks) and histopathology were used to evaluate safety and toxicity.

The test system of data set [2] is cerebral white matter. The data set can be described thus: CED of iopamidol in cerebral white matter with real-time CT-imaging. The data set is classed as in vivo, primates (Macaca mulatta). Here is the method:
as §1

For data set [3] the following is noted: in vivo; cited from earlier work.
The test system of data set [4] is sympathetic ganglia explants. The settings on record: cited from earlier work.
In a further data set the test system is putamen. The arrangement: species or system rhesus monkeys. The settings on record: rhesus monkey, in vivo. The protocol:
Anesthesia was induced with ketamine (10 mg/kg), xylazine (0.5 mg/kg), and thiopental sodium (1 mg/kg). The animals were secured in a monkey stereotactic frame (Kopf Instruments, Tujunga, Calif.). A Hamilton 32-gauge metal blunt tip needle connected to a 250 μl Hamilton syringe (Thompson Instruments, Chantilly, Va.) was stereotactically inserted in the center of the right putamen (anteroposterior 15.5 mm, mediolateral 12 mm and dorsoventral 24.5 mm relative to the tympanic canals and the mid-sagittal sinus)^15. After a delay of 90 minutes, the infusion was begun at 1.0 μl/min.
For CT, 130 μl, 200 μl and 235 μl of the tracer IPA-BSA/^14C-BSA mixture (35-55 Iopanoic Acid/BSA, 61.3-80.4 mg/ml ^14C-BSA) was infused. […]
CT and MRI images were analyzed in the MEDx software package (Sensor Systems, Inc., Sterling, Va.) running on a Sun workstation (Sun Microsystems, Inc., Palo Alto, Calif.). […] These were measured by volume segmentation using two different thresholds. Vd(1) was calculated as the volumes of distribution from CT and MRI containing at least 10% of the total increase in signal intensity due to the addition of contrast agent. A rectangular region of interest (ROI) over the infusion area was defined and in the corresponding site in the contralateral hemisphere, and the perfused maximal signal intensity (peak) and the unperfused maximal signal intensity (background) was measured. […]

Consider four molecules from patent US7371225B2, “Method for convection enhanced delivery of therapeutic agents” (The United States of America as represented by the …, priority 2002, dated 2008).

Where two headings read alike, the source gives them in different places.

For `C[C@H](O)C(=O)Nc1c(I)c(C(=O)NC(CO)CO)c(I)c(C(=O)NC(CO)CO)c1I` [iopamidol], the “Clinical or histopathologic evidence of toxicity” value with cerebral white matter [1] is reported as “None of the animals had clinical or histopathologic evidence of toxicity”. In addition, in the data set with cerebral white matter [2] (CT-imaging), the “Distribution of infusate identifiable post-infusion up to” value is “up to 72 hours” and the “Homogeneity of distribution of infusate” value was “homogeneous”. In addition, in the data set on cerebral white matter [2] (real-time CT-imaging, total volume 90 to 150 μl), the “Overall Vd:Vi ratio, mean±S.D.” value is given as 4.1±0.7.

`CCC(Cc1c(I)cc(I)c(N)c1I)C(=O)O` (centres unmarked) [iopanoic acid]: in data set [3], the “Neurotoxicity in the clinical setting” value is “not to be neurotoxic” and the “Side effects when used for imaging the gallbladder” value is “rare side effects (acute renal insufficiency, acute thrombocytompenia)”. In addition, the “Toxicity in tissue culture” value in data set [4] (0.01 mM) is listed as “No toxicity”.

In the case of `CCC(Cc1c(I)cc(I)c(N)c1I)C(=O)[O-].[Na+]` (centres unmarked) [sodium iopanoate], the “Toxicity in tissue culture” value in data set [4] (0.1 mM) is listed as “vacuolization of fibroblasts”; in data set [4] (1 mM), “immediate death of sympathetic ganglia explants”.

In the case of “IPA-BSA: Iopanoic acid conjugated to BSA, surrogate tracer for CT”, in the data set on putamen, the “Mean Vd(1)” value was determined as 3.44±0.74 and the “Mean Vd(2)” value turned out to be 4.51±1.31.
